# Measurements reported in the kinase profiling compilation of Christmann-Franck et al. (2016).
# Columns and labels:
# Assay in all cases: KINOMEscan competition binding
# Conditions in all cases: compound 10.0 µM
# MST4 (human) = MST4 (human) (UniProt Q9P289)
# LCK (human) = LCK (human) (UniProt P06239)
# CSNK1G1 (human) = CSNK1G1 (human) (UniProt Q9HCP0)
# STK38L (human) = STK38L (human) (UniProt Q9Y2H1)
# SIK1 (human) = SIK1 (human) (UniProt P57059)
# NLK (human) = NLK (human) (UniProt Q9UBE8)
# RAF1 (human) = RAF1 (human) (UniProt P04049)
# IGF1R (human) = IGF1R (human) (UniProt P08069)
# Chain of IGF1R (human) (P08069 whole entry, looked up): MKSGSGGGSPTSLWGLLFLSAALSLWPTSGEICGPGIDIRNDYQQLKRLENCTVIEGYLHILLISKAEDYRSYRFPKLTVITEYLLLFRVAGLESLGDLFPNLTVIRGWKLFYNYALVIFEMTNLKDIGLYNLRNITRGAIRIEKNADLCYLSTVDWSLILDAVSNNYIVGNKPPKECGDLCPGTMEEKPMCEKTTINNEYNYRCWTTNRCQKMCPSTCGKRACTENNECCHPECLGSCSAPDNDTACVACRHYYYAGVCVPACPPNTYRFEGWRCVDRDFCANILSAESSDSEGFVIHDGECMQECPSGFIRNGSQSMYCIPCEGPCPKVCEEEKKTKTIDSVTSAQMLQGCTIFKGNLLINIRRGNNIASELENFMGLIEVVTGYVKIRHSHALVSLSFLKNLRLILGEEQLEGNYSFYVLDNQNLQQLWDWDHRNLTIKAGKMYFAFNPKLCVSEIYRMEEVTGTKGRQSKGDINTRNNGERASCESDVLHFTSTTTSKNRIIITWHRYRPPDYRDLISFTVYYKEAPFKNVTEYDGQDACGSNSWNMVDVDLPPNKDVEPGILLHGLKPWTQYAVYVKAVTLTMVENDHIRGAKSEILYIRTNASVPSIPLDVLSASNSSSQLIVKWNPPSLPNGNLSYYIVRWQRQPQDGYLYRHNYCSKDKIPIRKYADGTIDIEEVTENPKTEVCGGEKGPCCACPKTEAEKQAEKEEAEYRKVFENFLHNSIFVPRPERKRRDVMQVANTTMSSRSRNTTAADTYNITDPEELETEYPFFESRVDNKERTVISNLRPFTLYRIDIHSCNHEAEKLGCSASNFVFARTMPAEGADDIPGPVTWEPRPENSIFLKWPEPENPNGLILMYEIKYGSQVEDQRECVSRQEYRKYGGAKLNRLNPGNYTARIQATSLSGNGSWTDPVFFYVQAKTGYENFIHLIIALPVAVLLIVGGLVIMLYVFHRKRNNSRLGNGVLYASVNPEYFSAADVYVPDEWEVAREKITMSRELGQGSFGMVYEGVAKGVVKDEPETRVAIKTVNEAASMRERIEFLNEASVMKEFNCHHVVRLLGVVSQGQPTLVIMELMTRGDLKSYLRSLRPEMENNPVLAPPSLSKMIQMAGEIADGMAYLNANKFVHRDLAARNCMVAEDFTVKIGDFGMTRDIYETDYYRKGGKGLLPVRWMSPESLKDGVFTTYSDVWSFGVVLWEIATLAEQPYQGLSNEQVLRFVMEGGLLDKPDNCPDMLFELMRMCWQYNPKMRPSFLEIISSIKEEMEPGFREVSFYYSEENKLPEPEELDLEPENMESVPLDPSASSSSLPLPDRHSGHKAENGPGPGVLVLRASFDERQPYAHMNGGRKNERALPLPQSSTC
# CHEK1 (human) = CHEK1 (human) (UniProt O14757)
# MYO3A (human) = MYO3A (human) (UniProt Q8NEV4)
# EIF2AK1 (human) = EIF2AK1 (human) (UniProt Q9BQI3)
# AURKA (human) = AURKA (human) (UniProt O14965)
# PIP5K1A (human) = PIP5K1A (human) (UniProt Q99755)
# CDK5 (human) = CDK5 (human) (UniProt Q00535)
# YSK4 (human) = YSK4 (human) (UniProt Q56UN5)
# Chain of YSK4 (human) (Q56UN5 whole entry, looked up): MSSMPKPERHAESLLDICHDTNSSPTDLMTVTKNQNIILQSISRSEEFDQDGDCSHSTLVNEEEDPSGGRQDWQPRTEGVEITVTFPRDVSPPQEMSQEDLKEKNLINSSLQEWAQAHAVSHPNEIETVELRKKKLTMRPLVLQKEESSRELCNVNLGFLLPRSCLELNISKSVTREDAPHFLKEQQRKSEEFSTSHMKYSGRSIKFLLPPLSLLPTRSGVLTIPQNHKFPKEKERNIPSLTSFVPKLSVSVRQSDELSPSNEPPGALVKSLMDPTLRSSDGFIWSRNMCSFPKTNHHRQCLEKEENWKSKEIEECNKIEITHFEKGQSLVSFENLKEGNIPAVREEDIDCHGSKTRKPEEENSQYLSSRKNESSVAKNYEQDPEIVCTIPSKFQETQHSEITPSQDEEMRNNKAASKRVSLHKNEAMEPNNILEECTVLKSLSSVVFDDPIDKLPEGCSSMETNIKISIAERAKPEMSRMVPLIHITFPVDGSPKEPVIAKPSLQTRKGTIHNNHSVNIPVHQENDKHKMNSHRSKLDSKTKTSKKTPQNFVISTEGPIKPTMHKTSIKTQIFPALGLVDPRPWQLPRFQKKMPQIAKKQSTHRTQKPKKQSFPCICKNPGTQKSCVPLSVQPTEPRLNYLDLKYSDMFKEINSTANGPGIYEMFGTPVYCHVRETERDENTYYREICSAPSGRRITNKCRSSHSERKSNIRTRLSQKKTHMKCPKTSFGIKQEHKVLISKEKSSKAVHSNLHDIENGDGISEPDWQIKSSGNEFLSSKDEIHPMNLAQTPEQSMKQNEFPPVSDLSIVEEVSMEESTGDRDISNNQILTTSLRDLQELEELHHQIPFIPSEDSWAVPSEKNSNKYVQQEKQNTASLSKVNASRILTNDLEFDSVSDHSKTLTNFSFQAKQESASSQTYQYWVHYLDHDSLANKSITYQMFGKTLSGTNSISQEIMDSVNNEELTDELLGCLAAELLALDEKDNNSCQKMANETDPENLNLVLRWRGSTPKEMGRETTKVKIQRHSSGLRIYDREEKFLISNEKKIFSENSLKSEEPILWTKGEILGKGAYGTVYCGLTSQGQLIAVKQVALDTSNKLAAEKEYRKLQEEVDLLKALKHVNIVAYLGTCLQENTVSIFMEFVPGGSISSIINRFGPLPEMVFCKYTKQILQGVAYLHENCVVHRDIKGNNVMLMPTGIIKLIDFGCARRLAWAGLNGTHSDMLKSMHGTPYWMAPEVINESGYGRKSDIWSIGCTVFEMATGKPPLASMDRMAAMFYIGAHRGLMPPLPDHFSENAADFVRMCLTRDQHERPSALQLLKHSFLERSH
# MAPK9 (human) = MAPK9 (human) (UniProt P45984)
# SRC (human) = SRC (human) (UniProt P12931)
# INSRR (human) = INSRR (human) (UniProt P14616)
# EPHB4 (human) = EPHB4 (human) (UniProt P54760)
# MAPK10 (human) = MAPK10 (human) (UniProt P53779)
# MAP4K1 (human) = MAP4K1 (human) (UniProt Q92918)
# ULK3 (human) = ULK3 (human) (UniProt Q6PHR2)
# NEK3 (human) = NEK3 (human) (UniProt P51956)
# DDR2 (human) = DDR2 (human) (UniProt Q16832)
# PRKG2 (human) = PRKG2 (human) (UniProt Q13237)
# Chain of PRKG2 (human) (Q13237 whole entry, looked up): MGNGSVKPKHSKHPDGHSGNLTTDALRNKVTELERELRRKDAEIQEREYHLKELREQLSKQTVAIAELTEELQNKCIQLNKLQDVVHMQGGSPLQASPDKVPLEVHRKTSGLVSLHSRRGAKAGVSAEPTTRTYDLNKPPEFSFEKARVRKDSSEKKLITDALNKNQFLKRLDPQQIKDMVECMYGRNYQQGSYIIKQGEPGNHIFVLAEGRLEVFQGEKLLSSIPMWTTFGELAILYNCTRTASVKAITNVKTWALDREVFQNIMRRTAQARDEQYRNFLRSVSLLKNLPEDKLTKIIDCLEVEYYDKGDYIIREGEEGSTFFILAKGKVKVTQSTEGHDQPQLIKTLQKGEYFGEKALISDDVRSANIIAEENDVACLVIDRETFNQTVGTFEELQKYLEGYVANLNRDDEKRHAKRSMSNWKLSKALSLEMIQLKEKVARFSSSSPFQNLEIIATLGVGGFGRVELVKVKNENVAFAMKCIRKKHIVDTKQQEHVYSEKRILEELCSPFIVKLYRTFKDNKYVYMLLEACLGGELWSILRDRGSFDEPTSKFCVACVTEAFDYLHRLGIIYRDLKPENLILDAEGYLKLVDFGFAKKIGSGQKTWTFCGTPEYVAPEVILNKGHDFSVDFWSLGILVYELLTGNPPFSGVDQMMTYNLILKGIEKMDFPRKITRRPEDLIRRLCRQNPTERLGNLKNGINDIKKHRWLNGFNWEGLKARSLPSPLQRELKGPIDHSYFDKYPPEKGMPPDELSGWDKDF
# DAPK1 (human) = DAPK1 (human) (UniProt P53355)
# LATS2 (human) = LATS2 (human) (UniProt Q9NRM7)
# STK3 (human) = STK3 (human) (UniProt Q13188)
# TNIK (human) = TNIK (human) (UniProt Q9UKE5)
# HUNK (human) = HUNK (human) (UniProt P57058)
# CSNK2A2 (human) = CSNK2A2 (human) (UniProt P19784)
# Chain of CSNK2A2 (human) (P19784 whole entry, looked up): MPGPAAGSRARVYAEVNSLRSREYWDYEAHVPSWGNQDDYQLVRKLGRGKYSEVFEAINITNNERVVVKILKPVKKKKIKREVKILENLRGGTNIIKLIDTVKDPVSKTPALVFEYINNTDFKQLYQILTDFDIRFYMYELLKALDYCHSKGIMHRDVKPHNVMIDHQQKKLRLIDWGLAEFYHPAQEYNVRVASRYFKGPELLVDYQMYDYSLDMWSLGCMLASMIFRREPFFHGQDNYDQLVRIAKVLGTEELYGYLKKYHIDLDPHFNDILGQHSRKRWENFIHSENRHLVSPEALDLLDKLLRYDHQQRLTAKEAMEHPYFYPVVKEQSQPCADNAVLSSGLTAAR
# TAOK3 (human) = TAOK3 (human) (UniProt Q9H2K8)
# MAPKAPK2 (human) = MAPKAPK2 (human) (UniProt P49137)
# TEK (human) = TEK (human) (UniProt Q02763)
# BLK (human) = BLK (human) (UniProt P51451)
# MAPK12 (human) = MAPK12 (human) (UniProt P53778)
# TAOK2 (human) = TAOK2 (human) (UniProt Q9UL54)
# AURKB (human) = AURKB (human) (UniProt Q96GD4)
# BRSK2 (human) = BRSK2 (human) (UniProt Q8IWQ3)
# DYRK2 (human) = DYRK2 (human) (UniProt Q92630)
# NEK11 (human) = NEK11 (human) (UniProt Q8NG66)
# Chain of SIK1 (human) (P57059 whole entry, looked up): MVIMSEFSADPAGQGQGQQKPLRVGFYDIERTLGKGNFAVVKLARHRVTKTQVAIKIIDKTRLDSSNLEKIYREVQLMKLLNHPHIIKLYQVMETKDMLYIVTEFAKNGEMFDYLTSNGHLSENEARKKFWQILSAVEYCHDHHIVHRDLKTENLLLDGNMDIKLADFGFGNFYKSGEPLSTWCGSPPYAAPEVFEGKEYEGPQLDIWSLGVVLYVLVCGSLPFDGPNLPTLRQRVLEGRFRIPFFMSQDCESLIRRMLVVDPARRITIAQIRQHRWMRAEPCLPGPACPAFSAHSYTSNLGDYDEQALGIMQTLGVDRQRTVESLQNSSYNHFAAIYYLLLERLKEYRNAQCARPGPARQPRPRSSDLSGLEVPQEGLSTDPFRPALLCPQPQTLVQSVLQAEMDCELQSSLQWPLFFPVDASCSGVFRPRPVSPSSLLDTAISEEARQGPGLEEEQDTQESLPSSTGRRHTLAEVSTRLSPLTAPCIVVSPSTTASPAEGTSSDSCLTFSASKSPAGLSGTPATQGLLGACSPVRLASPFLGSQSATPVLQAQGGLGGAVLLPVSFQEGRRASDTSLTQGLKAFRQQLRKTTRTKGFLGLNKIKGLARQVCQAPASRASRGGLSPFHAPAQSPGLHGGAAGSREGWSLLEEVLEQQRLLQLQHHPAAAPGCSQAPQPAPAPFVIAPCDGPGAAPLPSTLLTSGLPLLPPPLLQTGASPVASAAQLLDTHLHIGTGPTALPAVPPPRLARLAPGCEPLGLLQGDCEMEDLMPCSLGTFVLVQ
# Chain of CSNK1G1 (human) (Q9HCP0 whole entry, looked up): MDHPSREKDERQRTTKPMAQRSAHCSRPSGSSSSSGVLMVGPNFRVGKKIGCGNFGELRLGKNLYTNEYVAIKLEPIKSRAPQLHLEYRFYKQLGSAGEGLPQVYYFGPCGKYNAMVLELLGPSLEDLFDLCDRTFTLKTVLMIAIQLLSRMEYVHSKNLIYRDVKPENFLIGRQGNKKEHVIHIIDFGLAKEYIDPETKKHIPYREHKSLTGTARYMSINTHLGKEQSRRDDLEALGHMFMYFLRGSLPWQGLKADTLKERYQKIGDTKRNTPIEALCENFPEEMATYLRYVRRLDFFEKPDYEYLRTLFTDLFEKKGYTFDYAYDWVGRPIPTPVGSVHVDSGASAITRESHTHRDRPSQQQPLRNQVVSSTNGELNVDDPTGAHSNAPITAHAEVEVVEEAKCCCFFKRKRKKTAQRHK
SMILES,"kinase still bound, per cent of control (MST4 (human)) [%]","kinase still bound, per cent of control (SIK1 (human)) [%]","kinase still bound, per cent of control (IGF1R (human)) [%]","kinase still bound, per cent of control (MYO3A (human)) [%]","kinase still bound, per cent of control (AURKA (human)) [%]","kinase still bound, per cent of control (PIP5K1A (human)) [%]","kinase still bound, per cent of control (CDK5 (human)) [%]","kinase still bound, per cent of control (YSK4 (human)) [%]","kinase still bound, per cent of control (MAPK9 (human)) [%]","kinase still bound, per cent of control (SRC (human)) [%]","kinase still bound, per cent of control (INSRR (human)) [%]","kinase still bound, per cent of control (EPHB4 (human)) [%]","kinase still bound, per cent of control (MAPK10 (human)) [%]","kinase still bound, per cent of control (MAP4K1 (human)) [%]","kinase still bound, per cent of control (ULK3 (human)) [%]","kinase still bound, per cent of control (DDR2 (human)) [%]","kinase still bound, per cent of control (PRKG2 (human)) [%]","kinase still bound, per cent of control (LATS2 (human)) [%]","kinase still bound, per cent of control (STK3 (human)) [%]","kinase still bound, per cent of control (TNIK (human)) [%]",other results
CCCS(=O)(=O)Nc1ccc(F)c(C(=O)c2c[nH]c3ncc(Cl)cc23)c1F,96,2.6,91,35,60,100,57,29,71,9.2,89,100,90,70,60,15,93,86,21,24,"kinase still bound, per cent of control (LCK (human)): 3.2%; kinase still bound, per cent of control (CSNK1G1 (human)): 66%; kinase still bound, per cent of control (STK38L (human)): 71%; kinase still bound, per cent of control (NLK (human)): 100%; kinase still bound, per cent of control (RAF1 (human)): 3.4%; kinase still bound, per cent of control (CHEK1 (human)): 82%; kinase still bound, per cent of control (EIF2AK1 (human)): 32%; kinase still bound, per cent of control (NEK3 (human)): 69%; kinase still bound, per cent of control (DAPK1 (human)): 89%; kinase still bound, per cent of control (HUNK (human)): 24%; kinase still bound, per cent of control (CSNK2A2 (human)): 12%; kinase still bound, per cent of control (TAOK3 (human)): 61%; kinase still bound, per cent of control (MAPKAPK2 (human)): 100%; kinase still bound, per cent of control (TEK (human)): 100%; kinase still bound, per cent of control (BLK (human)): 1.7%; kinase still bound, per cent of control (MAPK12 (human)): 100%; kinase still bound, per cent of control (TAOK2 (human)): 43%; kinase still bound, per cent of control (AURKB (human)): 29%; kinase still bound, per cent of control (BRSK2 (human)): 86%"
CCN(CCO)CCCOc1ccc2c(Nc3cc(CC(=O)Nc4cccc(F)c4)[nH]n3)ncnc2c1,37,88,100,81,6.5,73,100,39,46,43,76,100,41,76,69,27,92,52,100,52,"kinase still bound, per cent of control (STK38L (human)): 100%; kinase still bound, per cent of control (NLK (human)): 100%; kinase still bound, per cent of control (RAF1 (human)): 100%; kinase still bound, per cent of control (DYRK2 (human)): 73%; kinase still bound, per cent of control (EIF2AK1 (human)): 5.2%; kinase still bound, per cent of control (NEK11 (human)): 98%; kinase still bound, per cent of control (NEK3 (human)): 100%; kinase still bound, per cent of control (DAPK1 (human)): 80%; kinase still bound, per cent of control (HUNK (human)): 94%; kinase still bound, per cent of control (CSNK2A2 (human)): 86%; kinase still bound, per cent of control (TAOK3 (human)): 100%; kinase still bound, per cent of control (MAPKAPK2 (human)): 100%; kinase still bound, per cent of control (TEK (human)): 13%; kinase still bound, per cent of control (BLK (human)): 9.6%; kinase still bound, per cent of control (MAPK12 (human)): 89%; kinase still bound, per cent of control (TAOK2 (human)): 98%; kinase still bound, per cent of control (AURKB (human)): 0.2%; kinase still bound, per cent of control (BRSK2 (human)): 100%"
CC(=O)c1c(C)c2cnc(Nc3ccc(N4CCNCC4)cn3)nc2n(C2CCCC2)c1=O,26,90,81,58,83,32,48,4.3,0.5,93,98,100,0.35,47,40,56,65,42,59,23,"kinase still bound, per cent of control (CSNK1G1 (human)): 83%; kinase still bound, per cent of control (CHEK1 (human)): 20%; kinase still bound, per cent of control (DYRK2 (human)): 5.5%; kinase still bound, per cent of control (EIF2AK1 (human)): 32%; kinase still bound, per cent of control (NEK11 (human)): 31%; kinase still bound, per cent of control (NEK3 (human)): 100%; kinase still bound, per cent of control (HUNK (human)): 77%; kinase still bound, per cent of control (CSNK2A2 (human)): 0.65%; kinase still bound, per cent of control (TAOK3 (human)): 8.1%; kinase still bound, per cent of control (MAPK12 (human)): 59%; kinase still bound, per cent of control (TAOK2 (human)): 30%; kinase still bound, per cent of control (AURKB (human)): 48%; kinase still bound, per cent of control (BRSK2 (human)): 80%"
CCOc1cc(N2CCC(O)CC2)ccc1Nc1ncc2c(n1)N(C)c1ccccc1C(=O)N2C,100,100,100,100,100,100,100,100,100,100,100,100,100,100,100,100,100,100,100,100,"kinase still bound, per cent of control (LCK (human)): 100%; kinase still bound, per cent of control (CSNK1G1 (human)): 100%; kinase still bound, per cent of control (STK38L (human)): 100%; kinase still bound, per cent of control (NLK (human)): 100%; kinase still bound, per cent of control (RAF1 (human)): 100%; kinase still bound, per cent of control (CHEK1 (human)): 100%; kinase still bound, per cent of control (DYRK2 (human)): 100%; kinase still bound, per cent of control (DAPK1 (human)): 100%; kinase still bound, per cent of control (HUNK (human)): 100%; kinase still bound, per cent of control (CSNK2A2 (human)): 100%; kinase still bound, per cent of control (TAOK3 (human)): 100%; kinase still bound, per cent of control (MAPKAPK2 (human)): 100%; kinase still bound, per cent of control (TEK (human)): 100%; kinase still bound, per cent of control (BLK (human)): 100%; kinase still bound, per cent of control (MAPK12 (human)): 100%; kinase still bound, per cent of control (AURKB (human)): 100%; kinase still bound, per cent of control (BRSK2 (human)): 100%"
